# Reference: PubChem BioAssay AID1963837 (Molecular Pharmacology Branch, DTP, NCI, 2024)
# Test system: 843126-344-R-J1-PDC complex spheroid viability
# Test: Anticancer human tumor 843126-344-R-J1-PDC patient-derived melanoma cell line growth inhibition [POLQ]
# Settings: for IC50: curve of first compound; for viability, T/C: stronger effect = lower value
# Procedure, shortened: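 Three-cell-type spheroids modelling solid tumor plus stroma served as the readout system; POL inhibitors were tested individually and in combination, concentration ranges set by clinical Cmax where known.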
# [1] = second compound 0.0316 µM, first compound 0.0316 µM
# [2] = second compound 0.0316 µM, first compound 0.1 µM
# [3] = second compound 0.0316 µM, first compound 0.316 µM
# [4] = second compound 0.0316 µM, first compound 1 µM
# [5] = second compound 0.0316 µM, first compound 3.16 µM
# [6] = second compound 0.0316 µM, first compound 10 µM
# [7] = second compound 0.1 µM, first compound 0.0316 µM
# [8] = second compound 0.1 µM, first compound 0.1 µM
# [9] = second compound 0.1 µM, first compound 0.316 µM
# [10] = second compound 0.1 µM, first compound 1 µM
# [11] = second compound 0.1 µM, first compound 3.16 µM
# [12] = second compound 0.1 µM, first compound 10 µM
# [13] = second compound 0.316 µM, first compound 0.0316 µM
# [14] = second compound 0.316 µM, first compound 0.1 µM
# [15] = second compound 0.316 µM, first compound 0.316 µM
# [16] = second compound 0.316 µM, first compound 1 µM
# [17] = second compound 0.316 µM, first compound 3.16 µM
# [18] = second compound 0.316 µM, first compound 10 µM
# [19] = second compound 1 µM, first compound 0.0316 µM
# [20] = second compound 1 µM, first compound 0.1 µM
# [21] = second compound 1 µM, first compound 0.316 µM
# [22] = second compound 1 µM, first compound 1 µM
# [23] = second compound 1 µM, first compound 3.16 µM
# [24] = second compound 1 µM, first compound 10 µM
# [25] = second compound 3.16 µM, first compound 0.0316 µM
# [26] = second compound 3.16 µM, first compound 0.1 µM
# [27] = second compound 3.16 µM, first compound 0.316 µM
# [28] = second compound 3.16 µM, first compound 1 µM
# [29] = second compound 3.16 µM, first compound 3.16 µM
# [30] = second compound 3.16 µM, first compound 10 µM
# [31] = second compound 10 µM, first compound 0.0316 µM
# [32] = second compound 10 µM, first compound 0.1 µM
# [33] = second compound 10 µM, first compound 0.316 µM
# [34] = second compound 10 µM, first compound 1 µM
# [35] = second compound 10 µM, first compound 3.16 µM
# [36] = second compound 10 µM, first compound 10 µM
# 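For viability, T/C in this document: spheroids exposed to drugs for seven days before readout.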
smiles,measurement,setting,value
COc1cccc2c1C(=O)c1c(O)c3c(c(O)c1C2=O)CC(O)(C(=O)CO)CC3OC1CC(N)C(O)C(C)O1 (stereo not given) + Nc1ccc(C#CCN(C(=O)Cc2ncc(C(F)(F)F)cc2C(F)(F)F)c2ccc(F)cc2)nn1,IC50,second compound 0.0316 µM,0.393 µM
same,IC50,second compound 0.1 µM,0.412 µM
same,IC50,second compound 0.316 µM,0.293 µM
same,IC50,second compound 1 µM,0.348 µM
same,IC50,second compound 3.16 µM,0.29 µM
same,IC50,second compound 10 µM,0.288 µM
same,"viability, T/C",[1],84.7%
same,"viability, T/C",[2],84.8%
same,"viability, T/C",[3],57.3%
same,"viability, T/C",[4],16.1%
same,"viability, T/C",[5],3.95%
same,"viability, T/C",[6],2.82%
same,"viability, T/C",[7],94.7%
same,"viability, T/C",[8],84.4%
same,"viability, T/C",[9],61.3%
same,"viability, T/C",[10],15.7%
same,"viability, T/C",[11],3.48%
same,"viability, T/C",[12],2.63%
same,"viability, T/C",[13],77.9%
same,"viability, T/C",[14],94.6%
same,"viability, T/C",[15],47.5%
same,"viability, T/C",[16],12.2%
same,"viability, T/C",[17],2.99%
same,"viability, T/C",[18],2.71%
same,"viability, T/C",[19],78.5%
same,"viability, T/C",[20],79%
same,"viability, T/C",[21],52.6%
same,"viability, T/C",[22],14.2%
same,"viability, T/C",[23],3.21%
same,"viability, T/C",[24],2.34%
same,"viability, T/C",[25],82.4%
same,"viability, T/C",[26],76.3%
same,"viability, T/C",[27],47.8%
same,"viability, T/C",[28],13.9%
same,"viability, T/C",[29],3.21%
same,"viability, T/C",[30],2.76%
same,"viability, T/C",[31],80.6%
same,"viability, T/C",[32],73.4%
same,"viability, T/C",[33],48.5%
same,"viability, T/C",[34],10.4%
same,"viability, T/C",[35],2.78%
same,"viability, T/C",[36],2.29%
CC(C)n1c(=O)n(C)c2cnc3cc(F)c(-c4ccc(OCCCN5CCCCC5)nc4)cc3c21 + COC1C(OC(N)=O)C(O)C(Oc2ccc3c(O)c(NC(=O)c4ccc(O)c(CC=C(C)C)c4)c(=O)oc3c2C)OC1(C)C,IC50,second compound 0.0316 µM,> 10 µM
same,IC50,second compound 0.1 µM,> 10 µM
same,IC50,second compound 0.316 µM,> 10 µM
same,IC50,second compound 1 µM,> 10 µM
same,IC50,second compound 3.16 µM,> 10 µM
same,IC50,second compound 10 µM,> 10 µM
same,"viability, T/C",[1],79.6%
same,"viability, T/C",[2],85.9%
same,"viability, T/C",[3],94.7%
same,"viability, T/C",[4],86.4%
same,"viability, T/C",[5],77.2%
same,"viability, T/C",[6],70.5%
same,"viability, T/C",[7],81.1%
same,"viability, T/C",[8],69.3%
same,"viability, T/C",[9],85%
same,"viability, T/C",[10],94.8%
same,"viability, T/C",[11],74.8%
same,"viability, T/C",[12],76.1%
same,"viability, T/C",[13],90.8%
same,"viability, T/C",[14],76.2%
same,"viability, T/C",[15],79.8%
same,"viability, T/C",[16],91.1%
same,"viability, T/C",[17],70.3%
same,"viability, T/C",[18],67.8%
same,"viability, T/C",[19],95.5%
same,"viability, T/C",[20],82.4%
same,"viability, T/C",[21],76.3%
same,"viability, T/C",[22],78%
same,"viability, T/C",[23],87.6%
same,"viability, T/C",[24],69.6%
same,"viability, T/C",[25],68.8%
same,"viability, T/C",[26],82.8%
same,"viability, T/C",[27],80.4%
same,"viability, T/C",[28],101%
same,"viability, T/C",[29],77.3%
same,"viability, T/C",[30],66.4%
same,"viability, T/C",[31],79%
same,"viability, T/C",[32],80.4%
same,"viability, T/C",[33],81.7%
same,"viability, T/C",[34],79.8%
same,"viability, T/C",[35],75.8%
same,"viability, T/C",[36],68.3%
C=CC(=O)N1CCN(c2nc(=O)n(-c3c(C)ccnc3C(C)C)c3nc(-c4c(O)cccc4F)c(F)cc23)C(C)C1 (stereo not given) + COC1C(OC(N)=O)C(O)C(Oc2ccc3c(O)c(NC(=O)c4ccc(O)c(CC=C(C)C)c4)c(=O)oc3c2C)OC1(C)C,IC50,second compound 0.0316 µM,> 10 µM
same,IC50,second compound 0.1 µM,> 10 µM
same,IC50,second compound 0.316 µM,> 10 µM
same,IC50,second compound 1 µM,> 10 µM
same,IC50,second compound 3.16 µM,> 10 µM
same,IC50,second compound 10 µM,> 10 µM
same,"viability, T/C",[1],98.3%
same,"viability, T/C",[2],100%
same,"viability, T/C",[3],97.4%
same,"viability, T/C",[4],89%
same,"viability, T/C",[5],94.9%
same,"viability, T/C",[6],71.4%
same,"viability, T/C",[7],110%
same,"viability, T/C",[8],108%
same,"viability, T/C",[9],101%
same,"viability, T/C",[10],113%
same,"viability, T/C",[11],92.8%
same,"viability, T/C",[12],80.5%
same,"viability, T/C",[13],88.7%
same,"viability, T/C",[14],111%
same,"viability, T/C",[15],103%
same,"viability, T/C",[16],85%
same,"viability, T/C",[17],101%
same,"viability, T/C",[18],78.6%
same,"viability, T/C",[19],99.8%
same,"viability, T/C",[20],95%
same,"viability, T/C",[21],104%
same,"viability, T/C",[22],108%
same,"viability, T/C",[23],114%
same,"viability, T/C",[24],68%
same,"viability, T/C",[25],107%
same,"viability, T/C",[26],74.1%
same,"viability, T/C",[27],105%
same,"viability, T/C",[28],113%
same,"viability, T/C",[29],97.7%
same,"viability, T/C",[30],77.7%
same,"viability, T/C",[31],82.7%
same,"viability, T/C",[32],107%
same,"viability, T/C",[33],92.9%
same,"viability, T/C",[34],98.3%
same,"viability, T/C",[35],104%
same,"viability, T/C",[36],83.5%
C#Cc1c(F)ccc2cc(O)cc(-c3ncc4c(N5CC6CCC(C5)N6)nc(OCC56CCCN5CC(F)C6)nc4c3F)c12 (stereo not given) + COC1C(OC(N)=O)C(O)C(Oc2ccc3c(O)c(NC(=O)c4ccc(O)c(CC=C(C)C)c4)c(=O)oc3c2C)OC1(C)C,IC50,second compound 0.0316 µM,> 10 µM
same,IC50,second compound 0.1 µM,> 10 µM
same,IC50,second compound 0.316 µM,> 10 µM
same,IC50,second compound 1 µM,> 10 µM
same,IC50,second compound 3.16 µM,> 10 µM
same,IC50,second compound 10 µM,> 10 µM
same,"viability, T/C",[1],101%
same,"viability, T/C",[2],116%
same,"viability, T/C",[3],76.9%
same,"viability, T/C",[4],95.8%
same,"viability, T/C",[5],82.4%
same,"viability, T/C",[6],76%
same,"viability, T/C",[7],82%
same,"viability, T/C",[8],106%
same,"viability, T/C",[9],86.2%
same,"viability, T/C",[10],81.4%
same,"viability, T/C",[11],91.7%
same,"viability, T/C",[12],85.4%
same,"viability, T/C",[13],79.3%
same,"viability, T/C",[14],96.5%
same,"viability, T/C",[15],73.9%
same,"viability, T/C",[16],107%
same,"viability, T/C",[17],109%
same,"viability, T/C",[18],74.2%
same,"viability, T/C",[19],87.9%
same,"viability, T/C",[20],98.7%
same,"viability, T/C",[21],89.3%
same,"viability, T/C",[22],111%
same,"viability, T/C",[23],98.1%
same,"viability, T/C",[24],91.3%
same,"viability, T/C",[25],83.7%
same,"viability, T/C",[26],105%
same,"viability, T/C",[27],91.4%
same,"viability, T/C",[28],107%
same,"viability, T/C",[29],86.6%
same,"viability, T/C",[30],84%
same,"viability, T/C",[31],88.2%
same,"viability, T/C",[32],84.8%
same,"viability, T/C",[33],98.5%
same,"viability, T/C",[34],100%
same,"viability, T/C",[35],93.2%
same,"viability, T/C",[36],71.1%
O=c1[nH]cc(F)c(=O)[nH]1 + COC1C(OC(N)=O)C(O)C(Oc2ccc3c(O)c(NC(=O)c4ccc(O)c(CC=C(C)C)c4)c(=O)oc3c2C)OC1(C)C,IC50,second compound 0.0316 µM,> 10 µM
same,IC50,second compound 0.1 µM,> 10 µM
same,IC50,second compound 0.316 µM,> 10 µM
same,IC50,second compound 1 µM,> 10 µM
same,IC50,second compound 3.16 µM,> 10 µM
same,IC50,second compound 10 µM,> 10 µM
same,"viability, T/C",[1],97.9%
same,"viability, T/C",[2],76.6%
same,"viability, T/C",[3],91.9%
same,"viability, T/C",[4],102%
same,"viability, T/C",[5],99.3%
same,"viability, T/C",[6],87.7%
same,"viability, T/C",[7],99.2%
same,"viability, T/C",[8],99%
same,"viability, T/C",[9],102%
same,"viability, T/C",[10],84.2%
same,"viability, T/C",[11],82.7%
same,"viability, T/C",[12],73.3%
same,"viability, T/C",[13],92.4%
same,"viability, T/C",[14],116%
same,"viability, T/C",[15],89.5%
same,"viability, T/C",[16],81.7%
same,"viability, T/C",[17],75.3%
same,"viability, T/C",[18],70.4%
same,"viability, T/C",[19],76.6%
same,"viability, T/C",[20],85.4%
same,"viability, T/C",[21],80.3%
same,"viability, T/C",[22],90.2%
same,"viability, T/C",[23],92.8%
same,"viability, T/C",[24],64.3%
same,"viability, T/C",[25],94.2%
same,"viability, T/C",[26],94.3%
same,"viability, T/C",[27],89.7%
same,"viability, T/C",[28],103%
same,"viability, T/C",[29],75.2%
same,"viability, T/C",[30],70.4%
same,"viability, T/C",[31],78.8%
same,"viability, T/C",[32],88.1%
same,"viability, T/C",[33],93%
same,"viability, T/C",[34],80.6%
same,"viability, T/C",[35],94.3%
same,"viability, T/C",[36],71.5%
